Laboratory results from patent publication US9308187B2, “Adhesive patch comprising diclofenac sodium” (HISAMITSU PHARMACEUTICAL CO., INC., priority 2012, dated 2016).
Like-named read-outs stand apart in the source and are kept apart here.

Test: Solubilities in a variety of solubilizers
Format: physicochemical
Conditions: organic solvent or mixture
Protocol: Thus, in order to search for components which suppress the time-dependent crystallization of diclofenac and diclofenac sodium and which can comprise diclofenac sodium in the adhesive layer at a high concentration (3% by mass or greater) of diclofenac, the solubilities of diclofenac and diclofenac sodium were measured in a variety of solubilizers.

Measured: solubility

O=C(O)Cc1ccccc1Nc1c(Cl)cccc1Cl [diclofenac]
≥ 100 mg/mL: N-methylpyrrolidone (NMP), solvent N-methylpyrrolidone, read-out: solubility in N-methylpyrrolidone (NMP) | dimethyl sulfoxide (DMSO), solvent dimethyl sulfoxide, read-out: solubility in dimethyl sulfoxide (DMSO) | dipropylene glycol (DPG), solvent dipropylene glycol, read-out: solubility in dipropylene glycol (DPG) | polyethylene glycol (PEG-400), solvent polyethylene glycol, read-out: solubility in polyethylene glycol (PEG-400)
